Results from patent US10954269B2, “Anti-inflammatory tripeptides” (Dr. August Wolff Gmbh & Co. KG Arzneimittel, priority 2013, dated 2021).

Assays:
Conditions in all cases: substance 10^−9M
[1] = test system: primary human T-cells; experiment: Cytokine secretion on protein level in activated primary human T-cells (13-plex FACS / Luminex, supernatant); assay type: cell-based
Outline: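 PMA/Ionomycin- or IFN-γ-activated cells (48 h) treated with tripeptides; supernatant 13-plex FACS at 48 h and 72 h post-stimulation. Luminex run: PMA/Ionomycin plus compound at 10^−7, 10^−9, 10^−11 M; IFN-γ, IL-17, IL-10 for T cells, IFN-γ for HaCaT.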

[2] = test system: human keratinocyte cell line (HaCaT); experiment: Cytokine secretion on protein level in activated human keratinocyte cell line HaCaT (13-plex FACS / Luminex, supernatant); assay type: cell-based
Outline: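 Cytokine protein in supernatant is read by multiplex FACS or Luminex. Tripeptide-treated HaCaT cells or blood-derived human T-cells are stimulated beforehand with PMA/Ionomycin or IFN-γ. The most relevant analytes are IL-1, IL-2, IL-6, IL-12p70, IL-17, IFN-γ and TNF-α, sampled 48 h and 72 h after stimulation.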

[3] = test system: primary murine T-cells; experiment: Cytokine secretion on protein level in activated primary murine T-cells (13-plex FACS / Luminex, supernatant); assay type: cell-based, C57BL/6 mice
Outline: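 T-cells from secondary lymphatic organs of naïve C57BL/6 mice, stimulated with PMA/Ionomycin or IFN-γ; supernatant cytokines measured by 13-plex FACS 48 h and 72 h after stimulation. In another run, PMA/Ionomycin-stimulated cells received compounds at 10^−7, 10^−9 and 10^−11 M, with IFN-γ, IL-17 and IL-10 measured by Luminex.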

[4] = primary human T-cells stimulated with IFN-γ
[5] = primary human T-cells stimulated with PBS
[6] = primary human T-cells stimulated with PMA/Ionomycin
[7] = HaCaT stimulated with PMA/Ionomycin
[8] = primary murine T-cells stimulated with IFN-γ
[9] = primary murine T-cells stimulated with PBS
[10] = primary murine T-cells stimulated with PMA/Ionomycin

Substance: N^α,N^α-dimethyl-(L)-Lys-(D)-Pro-N^α-methyl-(L)-Thr-NH2 [Example 4]
- IL-1 cytokine concentration [1, 4]: 366.09 pg/mL
- IL-2 cytokine concentration [1, 4]: 326.11 pg/mL
- IL-4 cytokine concentration [1, 4]: 176.6 pg/mL
- IL-5 cytokine concentration [1, 4]: 27.34 pg/mL
- IL-6 cytokine concentration [1, 4]: 180.43 pg/mL
- IL-9 cytokine concentration [1, 4]: 10.84 pg/mL
- IL-10 cytokine concentration [1, 4]: 75.72 pg/mL
- IL-12p70 cytokine concentration [1, 4]: 0 pg/mL
- IL-13 cytokine concentration [1, 4]: 212.64 pg/mL
- IL-17 cytokine concentration [1, 4]: 162.73 pg/mL
- IL-22 cytokine concentration [1, 4]: 0 pg/mL
- TNF-α cytokine concentration [1, 4]: 103.24 pg/mL
- IL-1 cytokine concentration [1, 5]: 122.89 pg/mL
- IL-2 cytokine concentration [1, 5]: 0 pg/mL
- IL-4 cytokine concentration [1, 5]: 60.49 pg/mL
- IL-5 cytokine concentration [1, 5]: 0 pg/mL
- IL-6 cytokine concentration [1, 5]: 226.2 pg/mL
- IL-9 cytokine concentration [1, 5]: 3.71 pg/mL
- IL-10 cytokine concentration [1, 5]: 0 pg/mL
- IL-12p70 cytokine concentration [1, 5]: 0 pg/mL
- IL-13 cytokine concentration [1, 5]: 0 pg/mL
- IL-17 cytokine concentration [1, 5]: 0 pg/mL
- IL-22 cytokine concentration [1, 5]: 0 pg/mL
- INF-α cytokine concentration [1, 5]: 0 pg/mL
- TNF-α cytokine concentration [1, 5]: 0 pg/mL
- IL-1 cytokine concentration [1, 6]: 689.99 pg/mL
- IL-2 cytokine concentration [1, 6]: 1227.93 pg/mL
- IL-4 cytokine concentration [1, 6]: 239.37 pg/mL
- IL-5 cytokine concentration [1, 6]: 473.23 pg/mL
- IL-6 cytokine concentration [1, 6]: 1280 pg/mL
- IL-9 cytokine concentration [1, 6]: 239.43 pg/mL
- IL-10 cytokine concentration [1, 6]: 417.95 pg/mL
- IL-12p70 cytokine concentration [1, 6]: 0 pg/mL
- IL-13 cytokine concentration [1, 6]: 1081.09 pg/mL
- IL-17 cytokine concentration [1, 6]: 1356.78 pg/mL
- IL-22 cytokine concentration [1, 6]: 0 pg/mL
- INF-α cytokine concentration [1, 6]: 5384.11 pg/mL
- TNF-α cytokine concentration [1, 6]: 4112.99 pg/mL
- IL-1 cytokine concentration ([2]; HaCaT stimulated with IFN-γ): 0 pg/mL
- IL-2 cytokine concentration ([2]; HaCaT stimulated with IFN-γ): 0 pg/mL
- IL-4 cytokine concentration ([2]; HaCaT stimulated with IFN-γ): 0 pg/mL
- IL-5 cytokine concentration ([2]; HaCaT stimulated with IFN-γ): 0 pg/mL
- IL-6 cytokine concentration ([2]; HaCaT stimulated with IFN-γ): 224.07 pg/mL
- IL-9 cytokine concentration ([2]; HaCaT stimulated with IFN-γ): 0 pg/mL
- IL-10 cytokine concentration ([2]; HaCaT stimulated with IFN-γ): 0 pg/mL
- IL-12p70 cytokine concentration ([2]; HaCaT stimulated with IFN-γ): 0 pg/mL
- IL-13 cytokine concentration ([2]; HaCaT stimulated with IFN-γ): 0 pg/mL
- IL-17 cytokine concentration ([2]; HaCaT stimulated with IFN-γ): 13.16 pg/mL
- IL-22 cytokine concentration ([2]; HaCaT stimulated with IFN-γ): 0 pg/mL
- TNF-α cytokine concentration ([2]; HaCaT stimulated with IFN-γ): 0 pg/mL
- IFN-γ cytokine concentration ([2]; HaCaT stimulated with PBS): 0 pg/mL
- IL-1 cytokine concentration ([2]; HaCaT stimulated with PBS): 0 pg/mL
- IL-2 cytokine concentration ([2]; HaCaT stimulated with PBS): 18.85 pg/mL
- IL-4 cytokine concentration ([2]; HaCaT stimulated with PBS): 109.04 pg/mL
- IL-5 cytokine concentration ([2]; HaCaT stimulated with PBS): 0 pg/mL
- IL-6 cytokine concentration ([2]; HaCaT stimulated with PBS): 80.55 pg/mL
- IL-9 cytokine concentration ([2]; HaCaT stimulated with PBS): 2.87 pg/mL
- IL-10 cytokine concentration ([2]; HaCaT stimulated with PBS): 61.87 pg/mL
- IL-12p70 cytokine concentration ([2]; HaCaT stimulated with PBS): 0 pg/mL
- IL-13 cytokine concentration ([2]; HaCaT stimulated with PBS): 123.68 pg/mL
- IL-17 cytokine concentration ([2]; HaCaT stimulated with PBS): 12.85 pg/mL
- IL-22 cytokine concentration ([2]; HaCaT stimulated with PBS): 0 pg/mL
- TNF-α cytokine concentration ([2]; HaCaT stimulated with PBS): 0 pg/mL
- IFN-γ cytokine concentration [2, 7]: 39.23 pg/mL
- IL-1 cytokine concentration [2, 7]: 0 pg/mL
- IL-2 cytokine concentration [2, 7]: 0 pg/mL
- IL-4 cytokine concentration [2, 7]: 0 pg/mL
- IL-5 cytokine concentration [2, 7]: 16.77 pg/mL
- IL-6 cytokine concentration [2, 7]: 225.53 pg/mL
- IL-9 cytokine concentration [2, 7]: 0 pg/mL
- IL-10 cytokine concentration [2, 7]: 97.56 pg/mL
- IL-12p70 cytokine concentration [2, 7]: 0 pg/mL
- IL-13 cytokine concentration [2, 7]: 0 pg/mL
- IL-17 cytokine concentration [2, 7]: 28.83 pg/mL
- IL-22 cytokine concentration [2, 7]: 0 pg/mL
- TNF-α cytokine concentration [2, 7]: 3.93 pg/mL
- IL-1 cytokine concentration [3, 8]: 100.01 pg/mL
- IL-2 cytokine concentration [3, 8]: 206.76 pg/mL
- IL-4 cytokine concentration [3, 8]: 0 pg/mL
- IL-5 cytokine concentration [3, 8]: 486.86 pg/mL
- IL-6 cytokine concentration [3, 8]: 235.86 pg/mL
- IL-10 cytokine concentration [3, 8]: 1250.21 pg/mL
- IL-13 cytokine concentration [3, 8]: 0 pg/mL
- IL-17 cytokine concentration [3, 8]: 92.71 pg/mL
- IL-21 cytokine concentration [3, 8]: 814.33 pg/mL
- IL-22 cytokine concentration [3, 8]: 114.68 pg/mL
- IL-27 cytokine concentration [3, 8]: 138.81 pg/mL
- TNF-α cytokine concentration [3, 8]: 47.36 pg/mL
- IFN-γ cytokine concentration [3, 9]: 2456.98 pg/mL
- IL-1 cytokine concentration [3, 9]: 78.5 pg/mL
- IL-2 cytokine concentration [3, 9]: 147.3 pg/mL
- IL-4 cytokine concentration [3, 9]: 119.19 pg/mL
- IL-5 cytokine concentration [3, 9]: 377.16 pg/mL
- IL-6 cytokine concentration [3, 9]: 189.26 pg/mL
- IL-10 cytokine concentration [3, 9]: 1006.65 pg/mL
- IL-13 cytokine concentration [3, 9]: 0 pg/mL
- IL-17 cytokine concentration [3, 9]: 0 pg/mL
- IL-21 cytokine concentration [3, 9]: 330.42 pg/mL
- IL-22 cytokine concentration [3, 9]: 84.16 pg/mL
- IL-27 cytokine concentration [3, 9]: 329.85 pg/mL
- TNF-α cytokine concentration [3, 9]: 18.91 pg/mL
- IFN-γ cytokine concentration [3, 10]: 3234.33 pg/mL
- IL-1 cytokine concentration [3, 10]: 196.76 pg/mL
- IL-2 cytokine concentration [3, 10]: 292.52 pg/mL
- IL-4 cytokine concentration [3, 10]: 123.15 pg/mL
- IL-5 cytokine concentration [3, 10]: 465.44 pg/mL
- IL-6 cytokine concentration [3, 10]: 245.96 pg/mL
- IL-10 cytokine concentration [3, 10]: 1383.24 pg/mL
- IL-13 cytokine concentration [3, 10]: 0 pg/mL
- IL-17 cytokine concentration [3, 10]: 391.98 pg/mL
- IL-21 cytokine concentration [3, 10]: 987.02 pg/mL
- IL-22 cytokine concentration [3, 10]: 48.93 pg/mL
- IL-27 cytokine concentration [3, 10]: 80.01 pg/mL
- TNF-α cytokine concentration [3, 10]: 62.85 pg/mL
